ChEMBL document CHEMBL4190326, “Novel Gomisin B analogues as potential cytotoxic agents: Design, synthesis, biological evaluation and docking studies” (Eur J Med Chem, 2017)
The source made the active and inactive calls. The calls are words filed in the database; no cut-off is given here.

What was measured:
[1] = system: SiHa; test: Cytotoxicity against human SiHa cells assessed as reduction in cell viability measured after 48 hrs by SRB assay; type: functional, cell-based
[2] = system: PANC-1; test: Cytotoxicity against human PANC1 cells assessed as reduction in cell viability measured after 48 hrs by SRB assay; type: functional, cell-based; details: PANC-1, 48 h
[3] = system: MDA-MB-231; test: Cytotoxicity against human MDA-MB-231 cells assessed as reduction in cell viability measured after 48 hrs by SRB assay; type: functional, cell-based; details: MDA-MB-231, 48 h
[4] = system: IMR-32; test: Cytotoxicity against human IMR32 cells assessed as reduction in cell viability measured after 48 hrs by SRB assay; type: functional, cell-based; details: IMR-32, 48 h
[5] = system: DU-145; test: Cytotoxicity against human DU145 cells assessed as reduction in cell viability measured after 48 hrs by SRB assay; type: functional, cell-based; details: DU-145, 48 h
[6] = system: A549; test: Cytotoxicity against human A549 cells assessed as reduction in cell viability measured after 48 hrs by SRB assay; type: functional, cell-based; details: A549, 48 h
[7] = system: HEK293; test: Cytotoxicity against HEK293 cells assessed as reduction in cell viability measured after 48 hrs by SRB assay; type: cell-based; details: Homo sapiens, HEK293, 48 h
[8] = Selectivity index, ratio of IC50 for HEK293 cells to IC50 for human DU145 cells; type: toxicity; details: HEK293 cells versus DU145 cells, read-out: Ratio IC50
[9] = organism: Bos taurus; test: Inhibition of bovine brain tubulin polymerization measured for 1 hr at 1 min interval by fluorescence assay relative to control
[10] = target: T1, Tubulin (Homo sapiens) (UniProt P68371+Q9H4B7+P0DPH7+P68366+Q13509+Q71U36+P04350+Q3ZCM7+P07437+P68363+Q9BQE3+Q6PEY2+Q13885+Q9BVA1+Q9BUF5); test: Induction of tubulin polymerization in human HeLa cells assessed as multiple spindle formation after 24 hrs by DAPI staining/confocal microscopy-based immunofluorescence analysis; type: cell-based
[11] = target: T1, Tubulin (Homo sapiens); test: Induction of tubulin polymerization in human HeLa cells assessed as increase in insoluble tubulin fraction after 24 hrs by Western blot analysis; type: cell-based
[12] = system: HeLa; test: Cell cycle arrest in human HeLa cells assessed as G2/M phase accumulation after 24 hrs by propidium iodide staining based flow cytometric analysis; type: functional
[13] = system: HeLa; test: Cell cycle arrest in human HeLa cells assessed as G2/M phase accumulation at 5 uM after 24 hrs by propidium iodide staining based flow cytometric analysis (reference value: 29.18%); type: functional
[14] = system: HeLa; test: Cell cycle arrest in human HeLa cells assessed as G2/M phase accumulation at 10 uM after 24 hrs by propidium iodide staining based flow cytometric analysis (reference value: 29.18%); type: functional
[15] = system: HeLa; test: Cell cycle arrest in human HeLa cells assessed as G2/M phase accumulation at 20 uM after 24 hrs by propidium iodide staining based flow cytometric analysis (reference value: 29.18%); type: functional
[16] = organism: Bos taurus; test: Induction of bovine brain tubulin polymerization at 5 uM measured for 1 hr at 1 min interval by fluorescence assay relative to control
[17] = target: T1, Tubulin (Homo sapiens); test: Induction of tubulin polymerization in human HeLa cells assessed as chromosomal alignment on metaphase plate at 10 uM after 24 hrs by DAPI staining/confocal microscopy-based immunofluorescence analysis; type: cell-based
[18] = system: HeLa; test: Cell cycle arrest in human HeLa cells assessed as G2/M phase accumulation after 24 hrs by propidium iodide staining based flow cytometric analysis (reference value: 29.18%); type: functional

SMILES | IC50 [1] [µM] | IC50 [2] [µM] | IC50 [3] [µM] | IC50 [4] [µM] | IC50 [5] [µM] | IC50 [6] [µM] | IC50 [7] [µM] | selectivity ratio [8] | fold change (FC) [9] | Activity [10] | Activity [11] | Activity [12] | Activity [13] [%] | Activity [14] [%] | Activity [15] [%] | fold change (FC) [16] | Activity [17] | Activity [18] [%]
COc1cc2c(c(OC)c1OC)-c1c(cc3c(c1OC)OCO3)C[C@H](C)[C@@](C)(O)/C2=N/OCc1cn(CC(=O)Nc2ccc(I)cc2Cl)nn1 | 86.4 | 92.1 | 82.9 | 81.6 | 98.7 | 97.5 | > 100 | 1.01 | – | – | – | – | – | – | – | – | – | –
CC(=O)O[C@H]1C(=O)[C@@]2(C)[C@H]([C@H](OC(=O)c3ccccc3)[C@]3(O)C[C@H](OC(=O)[C@H](O)[C@@H](NC(=O)c4ccccc4)c4ccccc4)C(C)=C1C3(C)C)[C@]1(OC(C)=O)CO[C@@H]1C[C@@H]2O | – | – | – | – | – | – | – | – | 2.68 | Active | Active | – | – | – | – | – | – | –
COc1cc2c(c(OC)c1OC)-c1c(cc3c(c1OC)OCO3)C[C@H](C)[C@@](C)(O)/C2=N/OCc1cn(-c2cc([N+](=O)[O-])ccc2Cl)nn1 | 94.5 | 93.4 | 85.7 | 86.4 | 95.1 | 96.4 | > 100 | 1.1 | – | – | – | – | – | – | – | – | – | –
COc1cc2c(c(OC)c1OC)-c1c(cc3c(c1OC)OCO3)C[C@H](C)[C@@](C)(O)/C2=N/O | 83.4 | 84.9 | 79.5 | 81.4 | 94.7 | 96.4 | > 100 | 1.05 | – | – | – | – | – | – | – | – | – | –
COc1cc2c(c(OC)c1OC)-c1c(cc3c(c1OC)OCO3)C[C@H](C)[C@@](C)(O)/C2=N/OCc1cn(-c2ccc(I)cc2)nn1 | 76.4 | 83.4 | 76.8 | 89.7 | 89.4 | 90.8 | > 100 | 1.1 | – | – | – | – | – | – | – | – | – | –
COc1cc2c(c(OC)c1OC)-c1c(cc3c(c1OC)OCO3)C[C@H](C)[C@@](C)(O)/C2=N/OCc1cn(-c2ccc(Cl)cc2)nn1 | 98.5 | 92.7 | 82.6 | 83.9 | 99.4 | > 100 | > 100 | 1.01 | – | – | – | – | – | – | – | – | – | –
COc1cc2c(c(OC)c1OC)-c1c(cc3c(c1OC)OCO3)C[C@H](C)[C@@](C)(O)/C2=N/OCc1cn(-c2ccc([N+](=O)[O-])c(Cl)c2)nn1 | – | – | 11.4 | 8.6 | 12.8 | 7.9 | 50.2 | – | – | – | Dose-dependent effect | Dose-dependent effect | 37.11 | 43.06 | 46.83 | 1.25 | Active | –
C#CCO/N=C1\c2cc(OC)c(OC)c(OC)c2-c2c(cc3c(c2OC)OCO3)C[C@H](C)[C@@]1(C)O | 96.1 | 97.2 | 80.4 | 82.6 | 99.5 | 98.1 | > 100 | 1.01 | – | – | – | – | – | – | – | – | – | –
COc1ccc(OC)c(-n2cc(CO/N=C3\c4cc(OC)c(OC)c(OC)c4-c4c(cc5c(c4OC)OCO5)C[C@H](C)[C@@]3(C)O)nn2)c1 | 74.3 | 81.2 | 73.8 | 76.5 | 86.7 | 91.8 | > 100 | 1.1 | – | – | – | – | – | – | – | – | – | –
COc1cc2c(c(OC)c1OC)-c1c(cc3c(c1OC)OCO3)C[C@H](C)[C@@](C)(O)/C2=N/OCc1cn(-c2cccc([N+](=O)[O-])c2)nn1 | 96.5 | 95.7 | 83.7 | 86.1 | 98.4 | 96.1 | > 100 | 1 | – | – | – | – | – | – | – | – | – | –
COc1cc2c(c(OC)c1OC)-c1c(cc3c(c1OC)OCO3)C[C@H](C)[C@@](C)(O)/C2=N/OCc1cn(-c2ccc(C(C)=O)cc2)nn1 | 71.1 | 80.3 | 70.8 | 86.4 | 92.4 | 95.7 | > 100 | 1.08 | – | – | – | – | – | – | – | – | – | –
COc1cc2c(c(OC)c1OC)-c1c(cc3c(c1OC)OCO3)C[C@H](C)[C@@](C)(O)/C2=N/OCc1cn(-c2ccccc2C#N)nn1 | 86.4 | 87.3 | 71.1 | 79.8 | 92.7 | 94.2 | > 100 | 1.1 | – | – | – | – | – | – | – | – | – | –
COc1cc(OC)c(-n2cc(CO/N=C3\c4cc(OC)c(OC)c(OC)c4-c4c(cc5c(c4OC)OCO5)C[C@H](C)[C@@]3(C)O)nn2)cc1OC | 69.5 | 76.8 | 72.8 | 76.8 | 86.2 | 87.5 | > 100 | 1.1 | – | – | – | – | – | – | – | – | – | –
COc1cc2c(c(OC)c1OC)-c1c(cc3c(c1OC)OCO3)C[C@H](C)[C@@](C)(O)C2=O | 75.1 | 88.6 | 73.1 | 72.3 | 83.1 | 94.8 | > 100 | 1.2 | – | – | – | – | – | – | – | – | – | –
C/C=C(/C)C(=O)O[C@H]1c2cc(OC)c(OC)c(OC)c2-c2c(cc3c(c2OC)OCO3)C[C@H](C)[C@@]1(C)O [ARISANSCHININ N] | 51.2 | 53.6 | 60.5 | 66.8 | 64.7 | 55.1 | 52 | 1.6 | – | – | – | – | – | – | – | – | – | –
COc1cc2c(c(OC)c1OC)-c1c(cc3c(c1OC)OCO3)C[C@H](C)[C@@](C)(O)/C2=N/OCc1cn(CC(=O)Nc2ccccc2)nn1 | 88.6 | 91.1 | 79.8 | 86.3 | 91.5 | 93.7 | > 100 | 1.1 | – | – | – | – | – | – | – | – | – | –
COc1cccc2c1C(=O)c1c(O)c3c(c(O)c1C2=O)C[C@@](O)(C(=O)CO)C[C@@H]3O[C@H]1C[C@H](N)[C@H](O)[C@H](C)O1 [DOXORUBICIN] | 1.5 | 1.9 | – | 2.3 | 2.4 | 1.6 | 10 | – | – | – | – | – | – | – | – | – | – | –
COC(=O)Nc1nc2cc(C(=O)c3cccs3)ccc2[nH]1 [NOCODAZOLE] | – | – | – | – | – | – | – | – | – | – | – | – | – | – | – | – | – | 91.7
COc1cc2c(c(OC)c1OC)-c1c(cc3c(c1OC)OCO3)C[C@H](C)[C@@](C)(O)/C2=N/OCc1cn(-c2cc(C)cc(C)c2)nn1 | 85.1 | 89.3 | 81.4 | 79.8 | 90.6 | 91.7 | > 100 | 1.1 | – | – | – | – | – | – | – | – | – | –
COc1ccc(/C=C\c2cc(OC)c(OC)c(OC)c2)cc1O | – | – | – | – | – | – | – | – | 0.15 | – | – | – | – | – | – | – | – | –
COc1cccc(-n2cc(CO/N=C3\c4cc(OC)c(OC)c(OC)c4-c4c(cc5c(c4OC)OCO5)C[C@H](C)[C@@]3(C)O)nn2)c1 | 92.1 | 98 | 82.1 | 77.4 | 95.8 | 96.4 | > 100 | 1.1 | – | – | – | – | – | – | – | – | – | –
COc1cc2c(c(OC)c1OC)-c1c(cc3c(c1OC)OCO3)C[C@H](C)[C@@](C)(O)/C2=N/OCc1cn(CC(=O)Nc2ccc(C)cc2)nn1 | 64.9 | 71.6 | 72.6 | 79.2 | 86.4 | 84.6 | > 100 | 1.15 | – | – | – | – | – | – | – | – | – | –
COc1cc2c(c(OC)c1OC)-c1c(cc3c(c1OC)OCO3)C[C@H](C)[C@@](C)(O)[C@H]2O | 68.3 | 78.4 | 81.2 | 86.7 | 87.4 | 94.2 | > 100 | 1.14 | – | – | – | – | – | – | – | – | – | –
CCc1ccc(-n2cc(CO/N=C3\c4cc(OC)c(OC)c(OC)c4-c4c(cc5c(c4OC)OCO5)C[C@H](C)[C@@]3(C)O)nn2)cc1 | 89.7 | 83.4 | 79.1 | 75.8 | 91.7 | 93.8 | > 100 | 1.1 | – | – | – | – | – | – | – | – | – | –
COc1cc(-n2cc(CO/N=C3\c4cc(OC)c(OC)c(OC)c4-c4c(cc5c(c4OC)OCO5)C[C@H](C)[C@@]3(C)O)nn2)cc(OC)c1Cl | 83.2 | 86.4 | 73.2 | 79.1 | 94.7 | 94.2 | > 100 | 1.1 | – | – | – | – | – | – | – | – | – | –
COc1cc2c(c(OC)c1OC)-c1c(cc3c(c1OC)OCO3)C[C@H](C)[C@@](C)(O)/C2=N/OCc1cn(-c2cccc(C)c2Cl)nn1 | 69.2 | 81.9 | 73.8 | 78.3 | 88.6 | 85.6 | > 100 | 1.1 | – | – | – | – | – | – | – | – | – | –
